Where two headings read alike, the source gives them in different places. Numbered stars: 1 amine (or outer) side, 2 acyl side, 3 side chain; on linkers, the order of the positions; unused ones are H or OH. Bridge positions count the residues as written; N and C are the ends. Square brackets hold non-standard residues; d marks the D form. Peptide text beside a SMILES is read from it. I, II: the chains in the order shown. Actinocin(1to9) = Cc1c2oc3c(C)ccc(C(=O)[*:2])c3nc-2c(C(=O)[*:1])c(N)c1=O; Actinocin(9to1) = Cc1c2oc3c(C)ccc(C(=O)[*:1])c3nc-2c(C(=O)[*:2])c(N)c1=O; Pro(4-oxo) = O=C1CN[C@H](C(=O)O)C1; Hyp = O=C(O)[CH]1C[CH](O)CN1; NMeV = CN[CH](C(=O)O)C(C)C; Sar = CNCC(=O)O
Key:
P. falciparum strain 3D7 = experiment: microbe, parasite or virus in culture; type: cell-based, Plasmodium falciparum; conditions: for SI, selectivity index (CC50/IC50): CC50 in AMB cells / IC50 against 3D7; for IC50: Plasmodium falciparum, 3D7, 48 h, read-out: IC50 (50% inhibitory concentration), in vitro antimalarial activity; for antimalarial activity of purified components (in words): bioassay during purification using P. falciparum strains 3D7 and Dd2
Method: (§1) Malarial parasite cultures and AMB cells were previously described. The detailed experimental procedure is described in the Supplementary data. Antimalarial activity and cytotoxicity were evaluated at 50% inhibitory concentration (IC50) and 50% cytotoxic concentration (CC50), respectively. We here analyzed these activities on purified actinomycin X2 (1), actinomycin X0ß (2), and commercially available actinomycin D (3). The SI is calculated as CC50/IC50.
(§2) Blood stages of P. falciparum 3D7 cell lines were provided by Nagasaki University with support in part by NEKKEN Bio-Resource Center (NEKKEN BRC), Institute of Tropical Medicine, Nagasaki University as a part of National BioResource Project (NBRP), MEXT, Japan. Human erythrocytes used for parasite culture were obtained from the Japan Red Cross Society (Registration No. 28J0060). The 3D7 parasites were cultivated in O+ erythrocytes in 2% hematocrit in Roswell Park Memorial Institute (RPMI) 1640-based complete medium (CM) supplemented with 5% AB+ human serum (prepared from plasma), 0.25% AlbuMax I (Gibco, Waltham, MA), 12.5 µg/mL gentamycin, and […] hypoxanthine […]
(§3) Primary adult mouse brain (AMB) cells were isolated and established at the NEKKEN Bio-Resource Center, according to previously established methods (Ref. 2). Briefly, the primary cells, which were passaged several times to be adapted to in vitro conditions, were maintained in Minimum Essential Medium (MEM) (Wako Pure Chemicals Industrial Ltd, Osaka, Japan) supplemented with 10% fetal bovine serum (FBS), penicillin/streptomycin solution (100 units/mL penicillin G and […] streptomycin sulfate) (Wako Pure Chemicals Industrial Ltd) and incubated at 37°C and 5% CO2. For the cytotoxicity assay, primary cells that had completed three passages were used.
Antimalarial growth inhibition assays
The antimalarial growth inhibition assay to determine 50% inhibition concentration (IC50) of compounds was performed as described before, with a minor modification (Ref. 3).
Briefly, The P. falciparum cultures (0.75% parasitemia and 2% hematocrit) were seeded on a 96-well black plate with the clear bottom (Thermo Fisher Scientific, Rochester, NY) and […]
exposed to compounds serially diluted threefold over a concentration range of 2.5 µg/mL to 0.13 ng/mL at the final concentration. As a result of the dose-response assay, IC50 value, the concentration of drug required to reduce parasites by 50% (10(log(A/B) × (50 ‒ C)/(D ‒ C) + log(B)) was obtained, where A represents the lowest concentration at which the percentage inhibition was greater than 50%, B is the highest concentration value at which the percentage inhibition was less than 50%, C is the percentage inhibition value of the sample at concentration B, and D is the percentage inhibition value of the sample at concentration A.
The culture plates were kept at 37°C under mixed gas (5% O2, 5% CO2, and 90% N2) for 48 hrs. Each in vitro experiment was performed in duplicate wells and repeated twice. The parasite growth inhibition was obtained by dividing the test samples' parasitemia by the negative controls' average.
SYBR Green – I (Lonza, Rockland, ME) assay technique was used to detect the parasite DNA. The RBCs were lysed after 48 hrs of incubation by adding 100 µL of lysis buffer (20 mM Tris, 10 mM EDTA, 0.01% saponin (wt/vol), and 0.1% Triton X-100 (vol/vol), pH 7.5) and 1× final concentration of SYBR Green - I into each well. The plates were incubated at room temperature for 1 hr with gentle agitation. The relative fluorescence units (RFU) per well were then determined at 485–515 nm (filter) for 0.1 sec per exposure using a multilabel plate reader (ARVO 1430; Perkin Elmer, Waltham, MA, USA).
Cytotoxicity assay was performed to determine 50% cytotoxic concentration (CC50) as previously described with minor modification (Ref. 4). Briefly, AMB cells (1×10^4 cells) were seeded in a 96-well plate (black plate with a clear bottom) and incubated at 37°C in a CO2

[1] = Cytotoxicity assay (Alamar Blue), primary adult mouse brain cells; type: cell-based; conditions: AMB cells, two independent experiments in duplicate wells, read-out: CC50 (50% cytotoxic concentration)
Method: as §1, §2
as §3, with “used. […]” for “used.”
SYBR Green – I (Lonza, Rockland, ME) assay technique was used to detect the parasite DNA. […] The relative fluorescence units (RFU) per well were then determined at 485–515 nm (filter) for 0.1 sec per exposure using a multilabel plate reader (ARVO 1430; Perkin Elmer, Waltham, MA, USA). […]

Structure (SMILES) | SI, selectivity index (CC50/IC50) (P. falciparum strain 3D7) | IC50 (P. falciparum strain 3D7) [nM] | CC50 at 48 h [1] [nM] | SI value relative to that of actinomycin D (P. falciparum strain 3D7) | IC50 (P. falciparum strain 3D7; P. falciparum 3D7, 48 hrs, two independent experiments in duplicate wells) [nM] | antimalarial activity of purified components (in words) (P. falciparum strain 3D7) | SI value relative to that of actinomycin D (P. falciparum strain 3D7; listed as 2) [fold] | CC50 ([1]; 48 hrs) [nM] | SI value relative to that of actinomycin D (P. falciparum strain 3D7; listed as 1) [fold]
Cc1c2oc3c(C)ccc(C(=O)N[C@@H]4C(=O)N[C@H](C(C)C)C(=O)N5CCC[C@H]5C(=O)N(C)CC(=O)N(C)[C@@H](C(C)C)C(=O)O[C@@H]4C)c3nc-2c(C(=O)N[C@@H]2C(=O)N[C@H](C(C)C)C(=O)N3CCC[C@H]3C(=O)N(C)CC(=O)N(C)[C@@H](C(C)C)C(=O)O[C@@H]2C)c(N)c1=O [actinomycin D] (I: T[dV]P[Sar][NMeV] / II: T[dV]P[Sar][NMeV]; ester I:1-I:C, II:1-II:C; linker I:N-II:N via Actinocin(9to1)) | 14.3 | 0.469 | 6.71 |  |  |  |  |  | 
Cc1c2oc3c(C)ccc(C(=O)NC4C(=O)NC(C(C)C)C(=O)N5CCCC5C(=O)N(C)CC(=O)N(C)C(C(C)C)C(=O)OC4C)c3nc-2c(C(=O)NC2C(=O)NC(C(C)C)C(=O)N3CC(O)CC3C(=O)N(C)CC(=O)N(C)C(C(C)C)C(=O)OC2C)c(N)c1=O (centres unmarked) [actinomycin X0ß] (I: TV[Hyp][Sar][NMeV] / II: TVP[Sar][NMeV]; ester I:1-I:C, II:1-II:C; linker I:N-II:N via Actinocin(1to9); configuration not given here) | 106 |  |  | seven | 7.69 | significant antimalarial activity | 7 | 818 | 
Cc1c2oc3c(C)ccc(C(=O)N[C@@H]4C(=O)N[C@H](C(C)C)C(=O)N5CCC[C@H]5C(=O)N(C)CC(=O)N(C)[C@@H](C(C)C)C(=O)O[C@@H]4C)c3nc-2c(C(=O)N[C@@H]2C(=O)N[C@H](C(C)C)C(=O)N3CC(=O)C[C@H]3C(=O)N(C)CC(=O)N(C)[C@@H](C(C)C)C(=O)O[C@@H]2C)c(N)c1=O [actinomycin X2] (I: T[dV][Pro(4-oxo)][Sar][NMeV] / II: T[dV]P[Sar][NMeV]; ester I:1-I:C, II:1-II:C; linker I:N-II:N via Actinocin(1to9)) | 27.9 | 0.241 | 6.71 |  |  | significant antimalarial activity |  |  | 2

— PMC13310753, “Discovery of actinomycin derivatives with improved selectivity against malaria parasites from a Streptomyces culture library” (The Journal of Antibiotics, 2026)
